Assays:
pig weed = assay: greenhouse post-emergence herbicidal test; format: in vivo, Amaranthus retroflexus; settings: application rate 1.0 kg/ha a.s.
Text: (§1) The seeds of the test plants were sown separately for each species. For the post-emergence treatment, the test plants were first grown to a height of 3 to 15 cm, depending on the plant habit, and only then treated with the active ingredients which had been suspended or emulsified in water. For this purpose, the test plants were either sown directly and grown in the same containers, or they were first grown separately as seedlings and transplanted into the test containers a few days prior to treatment. The rate of application for the post-emergence treatment was 1.0 kg/ha of a.s. (active substance). Depending on the species, the plants were kept at 10-25° C. or 20-35° C. The test period extended over 2 to 4 weeks. During this time, the plants were tended, and their response to the individual treatments was evaluated. Evaluation was carried out using a scale from 0 to 100. 100 means no emergence of the plants, or complete destruction of at least the aerial parts, and 0 means no damage, or normal course of growth. The plants used in the greenhouse experiments belonged to the following species: [table]

lambsquarters = assay: greenhouse post-emergence herbicidal test; format: in vivo, Chenopodium album; settings: application rate 1.0 kg/ha a.s.
Text: as §1

green foxtail = assay: greenhouse post-emergence herbicidal test; format: in vivo, Setaria viridis; settings: application rate 1.0 kg/ha a.s.
Text: as §1

| melting point [°C] | Structure (SMILES) | post-emergence action against pig weed (pig weed) | post-emergence action against lambsquarters (lambsquarters) | post-emergence action against green foxtail (green foxtail) |
| --- | --- | --- | --- | --- |
| 127 | CNC(=O)[C@H](CN)NC(=O)c1cn(C)nc1C(F)(F)F [Compound 3.6, N-[(1S)-1-(Aminomethyl)-2-(methylamino)-2-oxoethyl]-1-methyl-3-(trifluoromethyl)-1H-pyrazole-4-carboxamide] | – | – | – |
| 78 | CNC(=O)[C@H](CNC(=O)OC(C)(C)C)NC(=O)c1cn(C)nc1C(F)(F)F [Compound 3.11, O-tert-Butyl N-[(2S)-3-(methylamino)-2-({[1-methyl-3-(trifluoromethyl)-1H-pyrazol-4-yl]carbonyl}amino)-3-oxopropyl]carbamate] | – | – | – |
| 205 | CNC(=O)[C@H](CNC(=O)OC)NC(=O)c1cn(C)nc1C(F)(F)F [Compound 3.10, O-Methyl N-[(2S)-3-(methylamino)-2-({[1-methyl-3-(trifluoromethyl)-1H-pyrazol-4-yl]carbonyl}amino)-3-oxopropyl]carbamate] | very good | very good | very good |

Source: patent publication US20090054240A1, “Heteroaroyl-substituted Alanines” (BASF SE, priority 2006, published 2009)
